Laboratory results published in patent publication US7150974B1, “Parathyroid hormone receptor binding method” (The General Hospital Corporation, priority 1991, dated 2006).

Biological target: T1, carboxy-terminally-truncated rat receptor, R480 (Rattus norvegicus, UniProt P25961)
T1 construct: R480, by standard PCR technology using R15B as a template and an upstream primer containing a stop codon inserted at position 481; expressed in transfected cells
T1 sequence (P25961 27-480): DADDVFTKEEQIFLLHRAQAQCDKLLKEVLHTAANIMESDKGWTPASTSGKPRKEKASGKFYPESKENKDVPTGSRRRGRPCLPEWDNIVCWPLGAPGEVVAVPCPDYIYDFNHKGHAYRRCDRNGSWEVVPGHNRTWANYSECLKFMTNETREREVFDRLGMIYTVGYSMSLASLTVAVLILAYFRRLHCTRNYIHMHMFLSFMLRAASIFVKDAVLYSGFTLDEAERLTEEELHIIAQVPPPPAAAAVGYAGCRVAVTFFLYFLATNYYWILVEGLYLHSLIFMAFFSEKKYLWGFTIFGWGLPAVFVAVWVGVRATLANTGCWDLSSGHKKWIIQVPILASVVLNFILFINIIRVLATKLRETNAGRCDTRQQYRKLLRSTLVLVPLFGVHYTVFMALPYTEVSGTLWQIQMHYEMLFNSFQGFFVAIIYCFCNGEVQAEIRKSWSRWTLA
Assay: Binding to carboxy-terminally-truncated rat receptor R480 in COS-7 and CHO cells
Details: COS-7 (transient) and CHO (stable) cells
Method: [Nle^8,Nle^18,Tyr^34]bPTH-(1-34)amide (NlePTH), and [Tyr^36]PTHrP(1-36)amide(PTHrP) were iodinated with Na^125I (carrier free, New England Nuclear, Boston, Mass.) as previously reported (Segre et al., J. Biol. Chem. 254: 6980, 1979), and purified by reverse-phase HPLC. In brief, the labeled peptide was dissolved in 0.1% trifluoracetic acid (TFA), applied to a C18 Sep-pak cartridge (Waters Associates, Inc., Milford, Mass.) and eluted with a solution of 60% acetonitrile in 0.1% TFA. After lyophilization, the radioligand then was applied to C18-μBondapak column (3.9 mm×30 cm. Waters Associates) and eluted over 30 min with a linear gradient of 30-50% acetonitrile-0.1% TFA at a flow rate of 2 ml/min. The radioligand eluted in two peaks; the first peak, which eluted at approximately 38% acetonitrile, was used in these studies because it gave higher total and specific bindings. […]
Incubations were terminated by aspirating the buffer, and repeatedly (×3) washing the culture dishes, containing the adherent cells with chilled 0.9% NaCl solution, over a 15 sec period. Cell-bound radioactivity was recovered by the sequential addition (×3) of 1 N NaOH (200 μl) to each well. […] A second and third extraction with 1 N NaOH (200 μl) were combined with the first, and the total radioactivity was counted in a γ-spectrometer (Packard Instruments, Downers Grove, Ill.). […]

## [Nle^8,18, Tyr^34]bPTH(1-34)amide
  affinity for truncated receptor R480 compared with wild type receptor RB: equivalent affinities
